Test results taken from article PMC5218480 (PLoS ONE, 2017).

Tested on: MV-4-11 cells
Assay: Gene expression microarray analysis (Affymetrix PrimeView) and GSEA
Type: cell-based, human
Parameters: RFU PODN (11730768_x_at) / Fold change /veh PODN (11730768_x_at) / RFU LINC00158 (11744669_a_at) / Fold change /veh LINC00158 (11744669_a_at) / RFU DUSP10 (11751237_a_at) / Fold change /veh DUSP10 (11751237_a_at) / RFU ID3 (11757404_x_at) / Fold change /veh ID3 (11757404_x_at) / RFU PLEKHG5 (11737974_s_at) / Fold change /veh PLEKHG5 (11737974_s_at) / RFU LRRC4B (11730491_at) / Fold change /veh LRRC4B (11730491_at) / RFU GIMAP4 (11747438_a_at) / Fold change /veh GIMAP4 (11747438_a_at) / RFU KRT8 (11758183_x_at) / Fold change /veh KRT8 (11758183_x_at) / RFU CNN1 (11734310_a_at) / Fold change /veh CNN1 (11734310_a_at) / RFU VPS37D (11726825_at) / Fold change /veh VPS37D (11726825_at) / RFU C10orf10 (11716522_x_at) / Fold change /veh C10orf10 (11716522_x_at) / RFU KIR2DL2 /// KIR2DL4 /// KIR2DL5A /// KIR2DL5B /// KIR2DS1 /// KIR2DS2 /// KIR2DS3 /// KIR2DS4 /// KIR3DL3 /// KIR3DL3 /// KIR3DS1 (11738374_at) / Fold change /veh KIR2DL2 /// KIR2DL4 /// KIR2DL5A /// KIR2DL5B /// KIR2DS1 /// KIR2DS2 /// KIR2DS3 /// KIR2DS4 /// KIR3DL3 /// KIR3DL3 /// KIR3DS1 (11738374_at) / RFU C1QL1 (11718748_at) / Fold change /veh C1QL1 (11718748_at) / RFU TMPRSS4 (11747572_a_at) / Fold change /veh TMPRSS4 (11747572_a_at) / RFU HAMP (11756126_x_at) / Fold change /veh HAMP (11756126_x_at) / RFU RNFT2 (11725882_a_at) / Fold change /veh RNFT2 (11725882_a_at) / RFU NR4A2 (11747474_a_at) / Fold change /veh NR4A2 (11747474_a_at) / RFU ABCC12 (11746883_a_at) / Fold change /veh ABCC12 (11746883_a_at) / RFU TMEM136 (11760407_x_at) / Fold change /veh TMEM136 (11760407_x_at) / RFU CLDN22 /// WWC2 (11732394_at) / Fold change /veh CLDN22 /// WWC2 (11732394_at) / RFU HLA-DPB1 (11760878_x_at) / Fold change /veh HLA-DPB1 (11760878_x_at) / RFU SPINT1 (11716480_a_at) / Fold change /veh SPINT1 (11716480_a_at) / RFU GAP43 (11754022_s_at) / Fold change /veh GAP43 (11754022_s_at) / RFU A4GNT (11735810_at) / Fold change /veh A4GNT (11735810_at) / RFU PRB3 (11715151_x_at) / Fold change /veh PRB3 (11715151_x_at) / RFU TUBB4B (11761932_at) / Fold change /veh TUBB4B (11761932_at) / RFU CAPN14 (11732068_a_at) / Fold change /veh CAPN14 (11732068_a_at) / RFU TMCC2 (11721928_a_at) / Fold change /veh TMCC2 (11721928_a_at) / RFU IRGQ (11745062_a_at) / Fold change /veh IRGQ (11745062_a_at) / RFU FAM174B (11720279_a_at) / Fold change /veh FAM174B (11720279_a_at) / RFU TMPRSS4 (11748680_a_at) / Fold change /veh TMPRSS4 (11748680_a_at) / RFU FAM212B (11763350_a_at) / Fold change /veh FAM212B (11763350_a_at) / RFU PLEKHG5 (11743358_a_at) / Fold change /veh PLEKHG5 (11743358_a_at) / RFU ZSCAN30 (11745921_a_at) / Fold change /veh ZSCAN30 (11745921_a_at) / RFU CMKLR1 (11741424_a_at) / Fold change /veh CMKLR1 (11741424_a_at) / RFU LOC101060620 /// MAPK8IP1 (11723275_at) / Fold change /veh LOC101060620 /// MAPK8IP1 (11723275_at) / RFU SPTSSB (11747773_x_at) / Fold change /veh SPTSSB (11747773_x_at) / RFU PRSS12 (11739890_at) / Fold change /veh PRSS12 (11739890_at) / RFU BIN1 (11741810_x_at) / Fold change /veh BIN1 (11741810_x_at) / RFU WNT11 (11732464_a_at) / Fold change /veh WNT11 (11732464_a_at) / RFU C10orf10 (11716521_a_at) / Fold change /veh C10orf10 (11716521_a_at) / RFU C5orf56 (11738089_at) / Fold change /veh C5orf56 (11738089_at) / RFU CYB561 (11721691_x_at) / Fold change /veh CYB561 (11721691_x_at) / RFU ANKRD19P (11752326_a_at) / Fold change /veh ANKRD19P (11752326_a_at) / RFU OR2T12 /// OR2T33 /// OR2T8 (11738714_s_at) / Fold change /veh OR2T12 /// OR2T33 /// OR2T8 (11738714_s_at) / RFU VCAN (11748164_a_at) / Fold change /veh VCAN (11748164_a_at) / RFU JSRP1 (11732532_at) / Fold change /veh JSRP1 (11732532_at) / RFU KRTAP10-11 (11738290_x_at) / Fold change /veh KRTAP10-11 (11738290_x_at) / RFU MYO3A (11730013_a_at) / Fold change /veh MYO3A (11730013_a_at) / RFU EBF3 (11725865_a_at) / Fold change /veh EBF3 (11725865_a_at) / RFU CAMK2N1 (11719241_x_at) / Fold change /veh CAMK2N1 (11719241_x_at) / RFU C5orf56 (11738088_a_at) / Fold change /veh C5orf56 (11738088_a_at) / RFU OLFML3 (11715873_a_at) / Fold change /veh OLFML3 (11715873_a_at) / RFU LOC100653217 /// NTM (11731650_a_at) / Fold change /veh LOC100653217 /// NTM (11731650_a_at) / RFU MAPK11 (11762145_a_at) / Fold change /veh MAPK11 (11762145_a_at) / RFU FIZ1 (11724087_x_at) / Fold change /veh FIZ1 (11724087_x_at) / RFU OASL (11726364_x_at) / Fold change /veh OASL (11726364_x_at) / RFU SOX15 (11748057_x_at) / Fold change /veh SOX15 (11748057_x_at) / RFU CD79A (11719716_a_at) / Fold change /veh CD79A (11719716_a_at) / RFU HIST1H1D (11736915_at) / Fold change /veh HIST1H1D (11736915_at) / RFU CASKIN2 (11723855_a_at) / Fold change /veh CASKIN2 (11723855_a_at) / RFU LOC730098 (11760151_x_at) / Fold change /veh LOC730098 (11760151_x_at) / RFU OR4N2 (11742367_at) / Fold change /veh OR4N2 (11742367_at) / RFU PRRT2 (11749266_a_at) / Fold change /veh PRRT2 (11749266_a_at) / RFU SNX32 (11753110_a_at) / Fold change /veh SNX32 (11753110_a_at) / RFU CDHR5 (11726645_a_at) / Fold change /veh CDHR5 (11726645_a_at) / RFU RCAN1 (11760418_a_at) / Fold change /veh RCAN1 (11760418_a_at) / RFU FAM167A (11723789_a_at) / Fold change /veh FAM167A (11723789_a_at) / RFU FAM26E (11764081_at) / Fold change /veh FAM26E (11764081_at) / RFU ISYNA1 (11749810_s_at) / Fold change /veh ISYNA1 (11749810_s_at) / RFU ACY1 (11761880_at) / Fold change /veh ACY1 (11761880_at) / RFU 11764098_at / Fold change /veh 11764098_at / RFU SAMD14 (11745864_x_at) / Fold change /veh SAMD14 (11745864_x_at) / RFU NPB (11741838_a_at) / Fold change /veh NPB (11741838_a_at) / RFU TMPRSS6 (11731388_a_at) / Fold change /veh TMPRSS6 (11731388_a_at) / RFU KRTAP10-2 (11738614_at) / Fold change /veh KRTAP10-2 (11738614_at) / RFU ARHGAP8 /// PRR5-ARHGAP8 (11727945_x_at) / Fold change /veh ARHGAP8 /// PRR5-ARHGAP8 (11727945_x_at) / RFU KRTAP5-7 /// NADSYN1 (11734609_at) / Fold change /veh KRTAP5-7 /// NADSYN1 (11734609_at) / RFU RASL12 (11751679_a_at) / Fold change /veh RASL12 (11751679_a_at) / RFU CDKN2B (11736163_a_at) / Fold change /veh CDKN2B (11736163_a_at) / RFU PRF1 (11729649_at) / Fold change /veh PRF1 (11729649_at) / RFU, ZNF638 /// ZNF638-IT1 / Fold change vs veh, ZNF638 /// ZNF638-IT1 / RFU, PANK3 / Fold change vs veh, PANK3 / RFU, SH3YL1 / Fold change vs veh, SH3YL1 / RFU, ZEB2 / Fold change vs veh, ZEB2 / RFU, NRIP1 / Fold change vs veh, NRIP1 / RFU, PTTG1IP / Fold change vs veh, PTTG1IP / RFU, CAPN2 / Fold change vs veh, CAPN2 / RFU, MED14 / Fold change vs veh, MED14 / RFU, SNORA58 / Fold change vs veh, SNORA58 / RFU, C1orf63 / Fold change vs veh, C1orf63 / RFU, LRRFIP1 / Fold change vs veh, LRRFIP1 / RFU, NDUFAF7 / Fold change vs veh, NDUFAF7 / RFU, SLC12A2 / Fold change vs veh, SLC12A2 / RFU, IBTK / Fold change vs veh, IBTK / RFU, ESF1 / Fold change vs veh, ESF1 / Fold change vs veh, TMEM50B / RFU, TAOK1 / Fold change vs veh, TAOK1 / RFU, ACBD3 / Fold change vs veh, ACBD3 / RFU, TMA16 / Fold change vs veh, TMA16 / RFU, RWDD3 / Fold change vs veh, RWDD3 / RFU, BCAT1 / Fold change vs veh, BCAT1 / RFU, EDEM3 / Fold change vs veh, EDEM3 / RFU, TMEM33 / Fold change vs veh, TMEM33 / RFU, WDR75 / Fold change vs veh, WDR75 / RFU, AHCTF1 / Fold change vs veh, AHCTF1 / RFU, TFRC / Fold change vs veh, TFRC / RFU, ZDHHC17 / Fold change vs veh, ZDHHC17 / RFU, NOM1 / Fold change vs veh, NOM1 / RFU, ARL8B / Fold change vs veh, ARL8B / RFU, ZBTB11 / Fold change vs veh, ZBTB11 / RFU, TAMM41 / Fold change vs veh, TAMM41 / RFU, KIAA1704 /// LOC100996395 / Fold change vs veh, KIAA1704 /// LOC100996395 / RFU, ING1 / Fold change vs veh, ING1 / RFU, TRMT61B / Fold change vs veh, TRMT61B / RFU, FUBP3 / Fold change vs veh, FUBP3 / RFU, TP53 / Fold change vs veh, TP53 / RFU, TNKS2 / Fold change vs veh, TNKS2 / RFU, ZFP14 / Fold change vs veh, ZFP14 / RFU, ACTR2 / Fold change vs veh, ACTR2 / RFU, PPP3R1 / Fold change vs veh, PPP3R1 / RFU, PIK3R1 / Fold change vs veh, PIK3R1 / RFU, HNRNPA1 / Fold change vs veh, HNRNPA1 / RFU, RNF170 / Fold change vs veh, RNF170 / RFU, ZNF28 / Fold change vs veh, ZNF28 / RFU, RNGTT / Fold change vs veh, RNGTT / RFU, OGT / Fold change vs veh, OGT / RFU, BRD1 / Fold change vs veh, BRD1 / RFU, MARS / Fold change vs veh, MARS / RFU, ZNF655 / Fold change vs veh, ZNF655 / RFU, FAHD1 / Fold change vs veh, FAHD1 / RFU, BDP1 / Fold change vs veh, BDP1 / RFU, LRRCC1 / Fold change vs veh, LRRCC1 / RFU, ARID1A / Fold change vs veh, ARID1A / RFU, ZNF146 / Fold change vs veh, ZNF146 / RFU, ZNF330 / Fold change vs veh, ZNF330 / RFU, GPN3 / Fold change vs veh, GPN3 / RFU, C9orf123 / Fold change vs veh, C9orf123 / RFU, N4BP2L2 / Fold change vs veh, N4BP2L2 / RFU, ARFIP1 / Fold change vs veh, ARFIP1 / RFU, FAM179B / Fold change vs veh, FAM179B / RFU, BCL10 / Fold change vs veh, BCL10 / RFU, UHRF1BP1L / Fold change vs veh, UHRF1BP1L / RFU, BET1 / Fold change vs veh, BET1 / RFU, CNOT2 / Fold change vs veh, CNOT2 / RFU, ZNF268 / Fold change vs veh, ZNF268 / Fold change vs veh, ZNF507 / RFU, DGCR2 / Fold change vs veh, DGCR2 / RFU, WDSUB1 / Fold change vs veh, WDSUB1 / Fold change vs veh, HSP90B1 /// MIR3652 / RFU, ADSS / Fold change vs veh, ADSS / RFU, GK / Fold change vs veh, GK / RFU, ZNF148 / Fold change vs veh, ZNF148 / RFU, TAF9 / Fold change vs veh, TAF9 / RFU, SLC1A5 / Fold change vs veh, SLC1A5 / RFU, SLMO2 / Fold change vs veh, SLMO2 / RFU, ABCC4 / Fold change vs veh, ABCC4 / RFU, LOC101060439 /// RAP1B / Fold change vs veh, LOC101060439 /// RAP1B / RFU, RFX7 / Fold change vs veh, RFX7 / RFU, GTPBP10 / Fold change vs veh, GTPBP10 / RFU, CNEP1R1 / Fold change vs veh, CNEP1R1 / RFU, BIVM-ERCC5 /// ERCC5 / Fold change vs veh, BIVM-ERCC5 /// ERCC5 / RFU, ILF3 / Fold change vs veh, ILF3 / RFU 11762660_at / Fold change /veh 11762660_at / RFU VCAN (11757783_s_at) / Fold change /veh VCAN (11757783_s_at) / RFU DDX43 (11728927_at) / Fold change /veh DDX43 (11728927_at) / RFU KRT8 (11758188_x_at) / Fold change /veh KRT8 (11758188_x_at) / RFU NKD1 (11759106_at) / Fold change /veh NKD1 (11759106_at) / RFU SRD5A1 (11742802_a_at) / Fold change /veh SRD5A1 (11742802_a_at) / RFU TPSAB1 /// TPSB2 (11721975_s_at) / Fold change /veh TPSAB1 /// TPSB2 (11721975_s_at) / RFU GSTM3 (11746129_a_at) / Fold change /veh GSTM3 (11746129_a_at) / RFU IL23R (11737362_x_at) / Fold change /veh IL23R (11737362_x_at) / RFU TMEM51 (11727254_a_at) / Fold change /veh TMEM51 (11727254_a_at) / RFU PIWIL2 (11732686_x_at) / Fold change /veh PIWIL2 (11732686_x_at) / RFU ORM1 (11744905_x_at) / Fold change /veh ORM1 (11744905_x_at) / RFU CCDC152 (11743942_at) / Fold change /veh CCDC152 (11743942_at) / RFU ECM1 (11717891_a_at) / Fold change /veh ECM1 (11717891_a_at) / RFU IL23R (11748794_a_at) / Fold change /veh IL23R (11748794_a_at) / RFU TNFAIP8L3 (11732012_x_at) / Fold change /veh TNFAIP8L3 (11732012_x_at) / RFU MBOAT4 (11741988_at) / Fold change /veh MBOAT4 (11741988_at) / RFU 11764193_at / Fold change /veh 11764193_at / RFU TMEM53 (11763286_at) / Fold change /veh TMEM53 (11763286_at) / RFU MAGEB2 (11727129_at) / Fold change /veh MAGEB2 (11727129_at) / RFU TMEM200A (11744735_a_at) / Fold change /veh TMEM200A (11744735_a_at) / RFU CCDC152 (11751479_a_at) / Fold change /veh CCDC152 (11751479_a_at) / RFU FAM211A (11726209_a_at) / Fold change /veh FAM211A (11726209_a_at) / RFU RGS16 (11746705_a_at) / Fold change /veh RGS16 (11746705_a_at) / RFU VCAN (11755009_s_at) / Fold change /veh VCAN (11755009_s_at) / RFU RHOB (11743442_s_at) / Fold change /veh RHOB (11743442_s_at) / RFU RGS16 (11720943_a_at) / Fold change /veh RGS16 (11720943_a_at) / RFU RGS16 (11720944_at) / Fold change /veh RGS16 (11720944_at) / RFU, VPS4B / Fold change vs veh, VPS4B / RFU, CREB1 / Fold change vs veh, CREB1 / RFU, DNAJC13 / Fold change vs veh, DNAJC13 / RFU, GNAQ / Fold change vs veh, GNAQ / RFU, CDK5R1 / Fold change vs veh, CDK5R1 / RFU, ZRANB3 / Fold change vs veh, ZRANB3 / RFU, CUL4A / Fold change vs veh, CUL4A / RFU, CCNY / Fold change vs veh, CCNY / RFU, UFL1 / Fold change vs veh, UFL1 / RFU, COG3 / Fold change vs veh, COG3 / RFU, DIAPH2 / Fold change vs veh, DIAPH2 / RFU, SKA2 / Fold change vs veh, SKA2 / RFU, AFF3 / Fold change vs veh, AFF3 / RFU, LMF1 / Fold change vs veh, LMF1 / RFU, IPO11 / Fold change vs veh, IPO11 / RFU, DFFB / Fold change vs veh, DFFB / RFU, FOXP1 / Fold change vs veh, FOXP1 / RFU, CARD8 / Fold change vs veh, CARD8 / RFU, STRN3 / Fold change vs veh, STRN3 / RFU, ADK / Fold change vs veh, ADK / RFU, RASSF2 / Fold change vs veh, RASSF2 / RFU, WIPF1 / Fold change vs veh, WIPF1 / RFU, LARP1B / Fold change vs veh, LARP1B / RFU, RASA1 / Fold change vs veh, RASA1 / RFU, RB1 / Fold change vs veh, RB1 / RFU, PPFIA1 / Fold change vs veh, PPFIA1 / RFU, MAT2A / Fold change vs veh, MAT2A / RFU, CCT5 / Fold change vs veh, CCT5 / RFU, WDR92 / Fold change vs veh, WDR92 / RFU, CUX1 / Fold change vs veh, CUX1 / RFU, TTC7A / Fold change vs veh, TTC7A / RFU, TMEM135 / Fold change vs veh, TMEM135 / RFU, DEPTOR / Fold change vs veh, DEPTOR / RFU, CPM / Fold change vs veh, CPM / RFU, DNAJB6 / Fold change vs veh, DNAJB6 / RFU, CACNA2D3 / Fold change vs veh, CACNA2D3 / RFU, DTX4 / Fold change vs veh, DTX4 / RFU, TFCP2 / Fold change vs veh, TFCP2 / RFU, GMCL1 /// GMCL1P1 / Fold change vs veh, GMCL1 /// GMCL1P1 / RFU, AEBP2 / Fold change vs veh, AEBP2 / RFU, SNHG1 /// SNORD22 /// SNORD25 /// SNORD26 /// SNORD27 /// SNORD28 /// SNORD29 /// SNORD31 / Fold change vs veh, SNHG1 /// SNORD22 /// SNORD25 /// SNORD26 /// SNORD27 /// SNORD28 /// SNORD29 /// SNORD31 / Fold change (Aza/veh), C12orf56 (ProbeSet 11735607_a_at) / Fold change (ACY-1035/veh), C12orf56 (ProbeSet 11735607_a_at) / Fold change (Aza/veh), FGFR1OP (ProbeSet 11751329_s_at) / Fold change (ACY-1035/veh), FGFR1OP (ProbeSet 11751329_s_at) / Fold change (Aza/veh), VPS36 (ProbeSet 11739960_a_at) / Fold change (ACY-1035/veh), VPS36 (ProbeSet 11739960_a_at) / RFU SYPL1 (11715823_x_at) / Fold change /veh SYPL1 (11715823_x_at) / RFU IGFBP7 (11715501_s_at) / Fold change /veh IGFBP7 (11715501_s_at) / RFU REEP3 (11722064_at) / Fold change /veh REEP3 (11722064_at) / RFU IGLL1 (11728026_x_at) / Fold change /veh IGLL1 (11728026_x_at): dose or concentration left out as unconfirmed
Conditions: MV-4-11 cells, 48 hours

Nc1ncn([C@@H]2O[C@H](CO)[C@@H](O)[C@H]2O)c(=O)n1 [azacitidine]
RFU TMEM51 (11727254_a_at): 17.35 RFU
